{
  "source": "patent US9546150B2",
  "about": "“Substituted quinazolin-4-ones for inhibiting ubiquitin specific protease 7” (HYBRIGENICS SA, priority 2011, dated 2017)",
  "key": {"USP8": {"molecular_target": "T1, USP8 (Homo sapiens, UniProt P40818)", "T1 sequence (P40818 1-1118)": "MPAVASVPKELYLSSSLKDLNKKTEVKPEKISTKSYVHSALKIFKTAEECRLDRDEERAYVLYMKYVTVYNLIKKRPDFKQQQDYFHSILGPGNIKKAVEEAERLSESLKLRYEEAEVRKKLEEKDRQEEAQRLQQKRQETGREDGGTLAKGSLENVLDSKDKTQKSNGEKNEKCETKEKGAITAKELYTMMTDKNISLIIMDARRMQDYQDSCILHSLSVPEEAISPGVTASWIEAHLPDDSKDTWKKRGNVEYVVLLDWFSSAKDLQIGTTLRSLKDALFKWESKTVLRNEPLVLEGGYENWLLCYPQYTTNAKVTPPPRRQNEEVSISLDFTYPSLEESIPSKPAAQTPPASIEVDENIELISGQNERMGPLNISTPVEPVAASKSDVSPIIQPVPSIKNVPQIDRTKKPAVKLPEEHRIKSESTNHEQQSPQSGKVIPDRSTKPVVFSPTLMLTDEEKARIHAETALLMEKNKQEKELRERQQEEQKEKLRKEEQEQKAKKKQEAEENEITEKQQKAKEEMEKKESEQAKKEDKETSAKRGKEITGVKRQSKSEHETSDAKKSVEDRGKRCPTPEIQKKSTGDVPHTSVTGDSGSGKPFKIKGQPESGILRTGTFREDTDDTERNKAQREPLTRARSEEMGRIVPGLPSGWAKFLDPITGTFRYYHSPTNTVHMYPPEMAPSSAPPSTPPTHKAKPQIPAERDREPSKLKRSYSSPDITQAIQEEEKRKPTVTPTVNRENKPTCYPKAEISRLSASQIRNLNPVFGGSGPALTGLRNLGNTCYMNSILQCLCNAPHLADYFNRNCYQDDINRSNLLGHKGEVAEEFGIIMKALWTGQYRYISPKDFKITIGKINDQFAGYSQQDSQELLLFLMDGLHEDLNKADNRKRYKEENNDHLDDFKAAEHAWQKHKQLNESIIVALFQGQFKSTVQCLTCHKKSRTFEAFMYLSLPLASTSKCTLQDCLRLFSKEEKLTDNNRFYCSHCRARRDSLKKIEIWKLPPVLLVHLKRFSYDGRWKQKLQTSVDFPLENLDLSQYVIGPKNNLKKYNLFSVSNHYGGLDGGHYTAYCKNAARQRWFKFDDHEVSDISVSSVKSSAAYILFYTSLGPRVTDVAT", "assay": "HAUbVS competition assay in HEK293 cell lysates, USP8", "format": "biochemical", "parameters": "His tag (pFastBac-HT vector); made in house", "details": "12.5-200 μM", "procedure": "(§1) The HA-Ub-VS probe (Hemagglutin tag-Ubiquitin-Vinyl Sulfone) was used in this study to directly visualize the activity of all deubiquitinating enzymes from native proteomes.\n(§2) HEK293 cells were harvested and lysed on ice with a non denaturating buffer containing Tris pH7.4, 50 mM; NaCl, 150 mM; MgCl2, 5 mM; EDTA, 0.5 mM; DTT, 2 mM; ATP (adenosine triphosphate), 2 mM; NP40 (nonyl phenoxypolyethoxylethanol), 0.5% and glycerol, 10%. Samples were incubated at 4° C. for 1 hour and clarified. Proteins were then quantified by Bradford method (Bio-Rad Protein Assay). […] The ubiquitin labeling reaction was initiated by the addition of HA-Ub-VS (8 μg/ml) in labeling buffer (Tris pH7.6, 50 mM; MgCl2, 5 mM; EDTA, 0.5 mM; DTT, 2 mM; ATP, 2 mM; sucrose, 250 mM) and incubated at room temperature for 15 min. Samples were next heated at 100° C. for 10 minutes and briefly sonicated. They were resolved by SDS-polyacrylamide gel electrophoresis (SDS-PAGE), transferred to a nitrocellulose membrane and probed with antibodies against USP7, HA, UCH-L3, CYLD, USP8, USP5, USP10 and Stat3. […] Signals were detected by enhanced chemiluminescence (ECL; Amersham) according to the reagent manufacturer's instructions."}, "USP5": {"molecular_target": "T2, USP5 (Homo sapiens, UniProt P45974)", "T2 sequence (P45974 1-858)": "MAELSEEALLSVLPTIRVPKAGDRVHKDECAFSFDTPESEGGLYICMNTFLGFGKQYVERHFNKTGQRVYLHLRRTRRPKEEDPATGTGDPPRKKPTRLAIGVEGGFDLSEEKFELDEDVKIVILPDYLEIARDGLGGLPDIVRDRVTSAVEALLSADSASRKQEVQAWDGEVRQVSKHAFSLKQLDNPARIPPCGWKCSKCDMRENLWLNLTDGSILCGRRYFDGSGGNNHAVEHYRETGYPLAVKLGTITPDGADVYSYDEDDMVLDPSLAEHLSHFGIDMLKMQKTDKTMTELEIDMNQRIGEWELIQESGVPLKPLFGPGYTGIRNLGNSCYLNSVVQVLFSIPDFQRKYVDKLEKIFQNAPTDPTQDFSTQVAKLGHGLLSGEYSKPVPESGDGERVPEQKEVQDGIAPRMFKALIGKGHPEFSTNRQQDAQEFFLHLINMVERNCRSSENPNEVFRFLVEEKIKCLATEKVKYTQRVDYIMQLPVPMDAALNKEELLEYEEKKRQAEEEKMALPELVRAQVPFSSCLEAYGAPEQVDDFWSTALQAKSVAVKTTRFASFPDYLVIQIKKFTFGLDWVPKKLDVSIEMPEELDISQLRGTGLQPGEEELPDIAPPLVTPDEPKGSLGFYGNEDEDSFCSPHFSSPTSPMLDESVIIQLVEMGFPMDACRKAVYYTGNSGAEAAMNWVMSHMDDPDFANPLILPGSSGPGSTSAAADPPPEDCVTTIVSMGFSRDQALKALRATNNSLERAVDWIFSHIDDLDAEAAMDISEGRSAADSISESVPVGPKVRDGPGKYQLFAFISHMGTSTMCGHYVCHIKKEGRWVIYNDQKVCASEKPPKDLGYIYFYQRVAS", "assay": "HAUbVS competition assay in HEK293 cell lysates, USP5", "format": "biochemical", "details": "12.5-200 μM", "procedure": "as §1, §2"}},
  "data": [
    {"smiles": "CC(Cc1cccs1)C(=O)N1CCC(O)(Cn2cnc3ccccc3c2=O)CC1", "note": "(centres unmarked) [Example 5, 3-({4-hydroxy-1-[2-methyl-3-(thiophen-2-yl)propanoyl]piperidin-4-yl}methyl)-3,4-dihydroquinazolin-4-one]", "values": [
      {"measurement": "blocking of HAUbVS labeling of USP8", "setting": "USP8", "result": "without any cross-reaction"},
      {"measurement": "blocking of HAUbVS labeling of USP5", "setting": "USP5", "result": "without any cross-reaction"}
    ]}
  ]
}
